Data published in ChEMBL document CHEMBL1156502, “Stabilized immune modulatory RNA compounds as agonists of Toll-like receptors 7 and 8” (Proc Natl Acad Sci U S A, 2007).
Activity calls are given as the source filed them. The rule behind the calls is not given here.

Legend:
Cynomolgus monkey [1] = test: Induction of immune response in cynomolgus monkey assessed as increase in number of peripheral blood monocytes at 5 mg/kg, sc within 24 hrs; format: functional, organism-based; set-up: dose 5 mg/kg; conditions: Macaca fascicularis
[2] = Stability in 1% human serum assessed as full length product after 10 mins; format: ADME, cell-free; conditions: read-out: Stability
PBMC [3] = test: Induction of IL10 secretion in human PBMC after 24 hrs by Luminex Multiplex assay; format: functional, cell-based
Cynomolgus monkey [4] = test: Induction of immune response in cynomolgus monkey assessed as increase in number of peripheral blood neutrophils at 5 mg/kg, sc within 24 hrs; format: functional, organism-based; set-up: dose 5 mg/kg; conditions: Macaca fascicularis
Cynomolgus monkey [5] = test: Increase in CD69 expression on CD16+ NK cells in cynomolgus monkey at 5 mg/kg, sc after 24 hrs by flow cytometry relative to control; format: functional, organism-based; set-up: dose 5 mg/kg; conditions: Macaca fascicularis
Cynomolgus monkey [6] = test: Increase in CD69 expression on CD3+ lymphocytes in cynomolgus monkey at 5 mg/kg, sc after 24 hrs by flow cytometry relative to control; format: functional, organism-based; set-up: dose 5 mg/kg; conditions: Macaca fascicularis
PBMC [7] = test: Induction of IL1-beta secretion in human PBMC after 24 hrs by Luminex Multiplex assay; format: functional, cell-based
PBMC [8] = test: Induction of IFNalpha secretion in human PBMC after 24 hrs by Luminex Multiplex assay; format: functional, cell-based
[9] = target: T1, Toll-like receptor 8 (Homo sapiens) (UniProt Q9NR97); test: Activation of human TLR8 expressed in HEK293 cells assessed as increase in NF-kappaB activation at 100 ug/ml by SEAP assay; format: cell-based
T1 sequence (whole entry): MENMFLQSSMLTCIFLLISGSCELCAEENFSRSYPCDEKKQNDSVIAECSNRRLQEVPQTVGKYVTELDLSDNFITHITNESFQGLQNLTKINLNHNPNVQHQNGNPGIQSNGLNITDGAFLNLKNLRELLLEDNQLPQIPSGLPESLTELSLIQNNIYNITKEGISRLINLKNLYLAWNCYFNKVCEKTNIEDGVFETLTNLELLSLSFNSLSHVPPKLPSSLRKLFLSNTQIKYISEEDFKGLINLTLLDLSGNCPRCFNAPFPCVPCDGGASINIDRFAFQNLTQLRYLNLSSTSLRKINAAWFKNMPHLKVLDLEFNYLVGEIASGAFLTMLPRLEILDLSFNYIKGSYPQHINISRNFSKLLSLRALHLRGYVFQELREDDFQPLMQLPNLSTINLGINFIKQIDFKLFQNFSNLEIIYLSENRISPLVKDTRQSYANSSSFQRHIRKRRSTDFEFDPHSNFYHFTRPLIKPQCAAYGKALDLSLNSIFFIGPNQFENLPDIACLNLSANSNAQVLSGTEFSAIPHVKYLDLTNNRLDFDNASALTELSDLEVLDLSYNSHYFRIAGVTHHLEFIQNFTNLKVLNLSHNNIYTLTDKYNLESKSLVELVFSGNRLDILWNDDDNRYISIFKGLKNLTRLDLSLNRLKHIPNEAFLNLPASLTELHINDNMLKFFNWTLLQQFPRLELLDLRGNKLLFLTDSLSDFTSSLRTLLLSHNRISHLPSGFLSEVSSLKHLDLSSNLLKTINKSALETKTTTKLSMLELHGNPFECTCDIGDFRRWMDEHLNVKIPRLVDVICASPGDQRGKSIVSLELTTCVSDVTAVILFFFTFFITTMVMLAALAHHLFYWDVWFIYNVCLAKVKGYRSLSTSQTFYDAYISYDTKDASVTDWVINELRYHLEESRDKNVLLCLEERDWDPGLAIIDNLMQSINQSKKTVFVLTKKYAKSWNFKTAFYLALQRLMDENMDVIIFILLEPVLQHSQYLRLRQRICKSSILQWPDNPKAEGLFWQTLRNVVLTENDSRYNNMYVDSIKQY

Cynomolgus monkey [10] = test: Increase in CD69 expression on CD14+ monocytes in cynomolgus monkey at 5 mg/kg, sc after 24 hrs by flow cytometry relative to control; format: functional, organism-based; set-up: dose 5 mg/kg; conditions: Macaca fascicularis
PBMC [11] = test: Induction of IL12 secretion in human PBMC after 24 hrs by Luminex Multiplex assay; format: functional, cell-based
Cynomolgus monkey [12] = test: Elevation of IFNalpha in cynomolgus monkey plasma at 5 mg/kg, sc after 24 hrs; format: functional, organism-based; set-up: dose 5 mg/kg; conditions: Macaca fascicularis
PBMC [13] = test: Induction of IL2R secretion in human PBMC after 24 hrs by Luminex Multiplex assay; format: functional, cell-based
Cynomolgus monkey [14] = test: Elevation of IP10 in cynomolgus monkey plasma at 5 mg/kg, sc after 24 hrs; format: functional, organism-based; set-up: dose 5 mg/kg; conditions: Macaca fascicularis
[15] = target: T2, Toll-like receptor 7 (Homo sapiens) (UniProt Q9NYK1); test: Activation of human TLR7 expressed in HEK293 cells assessed as increase in NF-kappaB activation at 100 ug/ml by SEAP assay; format: cell-based
T2 sequence (whole entry): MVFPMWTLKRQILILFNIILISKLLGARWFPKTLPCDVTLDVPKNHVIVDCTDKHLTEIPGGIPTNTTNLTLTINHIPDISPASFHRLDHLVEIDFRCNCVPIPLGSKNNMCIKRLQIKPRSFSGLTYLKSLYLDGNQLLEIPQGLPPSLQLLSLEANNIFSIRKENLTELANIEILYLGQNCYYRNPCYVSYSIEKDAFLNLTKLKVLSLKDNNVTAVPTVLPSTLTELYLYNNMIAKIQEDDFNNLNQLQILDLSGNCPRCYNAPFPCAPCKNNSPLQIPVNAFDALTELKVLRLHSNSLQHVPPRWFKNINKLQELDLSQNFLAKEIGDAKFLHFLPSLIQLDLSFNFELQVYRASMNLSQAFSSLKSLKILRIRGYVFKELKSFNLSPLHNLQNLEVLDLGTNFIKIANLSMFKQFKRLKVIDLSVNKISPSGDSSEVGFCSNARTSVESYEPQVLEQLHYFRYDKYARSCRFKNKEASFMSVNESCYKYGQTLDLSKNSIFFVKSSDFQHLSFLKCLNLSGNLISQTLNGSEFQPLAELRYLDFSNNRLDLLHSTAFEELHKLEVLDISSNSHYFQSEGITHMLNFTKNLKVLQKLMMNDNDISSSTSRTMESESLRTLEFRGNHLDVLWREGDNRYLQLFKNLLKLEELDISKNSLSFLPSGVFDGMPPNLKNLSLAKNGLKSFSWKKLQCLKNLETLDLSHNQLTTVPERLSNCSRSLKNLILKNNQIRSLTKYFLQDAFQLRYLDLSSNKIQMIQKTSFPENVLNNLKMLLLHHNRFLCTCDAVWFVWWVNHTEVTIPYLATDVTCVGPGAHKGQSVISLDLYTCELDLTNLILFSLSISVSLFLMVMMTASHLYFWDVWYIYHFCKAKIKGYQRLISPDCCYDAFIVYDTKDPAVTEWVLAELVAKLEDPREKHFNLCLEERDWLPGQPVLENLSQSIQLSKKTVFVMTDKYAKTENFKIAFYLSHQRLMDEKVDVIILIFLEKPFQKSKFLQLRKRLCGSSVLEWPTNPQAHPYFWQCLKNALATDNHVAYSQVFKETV

PBMC [16] = test: Induction of IFN-gamma secretion in human PBMC after 24 hrs by Luminex Multiplex assay; format: functional, cell-based
Mus musculus [17] = test: Induction of IL12 secretion in sc dosed C57BL/6 mouse serum after 2 hrs by ELISA; format: functional, organism-based
Mus musculus [18] = test: Induction of chemokine secretion in C57BL/6 mouse plasma at 100 mg/kg, sc by Luminex Multiplex assay; format: functional, organism-based; set-up: dose 100 mg/kg
Mus musculus [19] = test: Induction of cytokine secretion in C57BL/6 mouse plasma at 100 mg/kg, sc by Luminex Multiplex assay; format: functional, organism-based; set-up: dose 100 mg/kg

| remaining at 10 min [2] | Activity [9] | Activity [15] | Compound | Activity (Cynomolgus monkey [1]) | Activity (PBMC [3]) | Activity (Cynomolgus monkey [4]) | Activity (Cynomolgus monkey [5]) | Activity (Cynomolgus monkey [6]) | Activity (PBMC [7]) | Activity (PBMC [8]) | Activity (Cynomolgus monkey [10]) | Activity (PBMC [11]) | Activity (Cynomolgus monkey [12]) | Activity (PBMC [13]) | Activity (Cynomolgus monkey [14]) | Activity (PBMC [16]) | Activity (Mus musculus [17]) | Activity (Mus musculus [18]) | Activity (Mus musculus [19]) |
| --- | --- | --- | --- | --- | --- | --- | --- | --- | --- | --- | --- | --- | --- | --- | --- | --- | --- | --- | --- |
| 78% | Active | inactive | Nc1ccn([C@@H]2O[C@H](COP(O)(=S)O[C@H]3[C@@H](O)[C@H](n4cnc5c(=O)[nH]c(N)nc54)O[C@@H]3COP(O)(=S)O[C@H]3[C@@H](O)[C@H](n4ccc(=O)[nH]c4=O)O[C@@H]3COCCCO)[C@@H](OP(O)(=S)OC[C@H]3O[C@@H](n4ccc(=O)[nH]c4=O)[C@H](O)[C@@H]3OP(O)(=S)OC[C@H]3O[C@@H](n4cnc5c(=O)[nH]c(N)nc54)[C@H](O)[C@@H]3OP(O)(=S)OC[C@H]3O[C@@H](n4ccc(N)nc4=O)[C@H](O)[C@@H]3OP(O)(=S)OC[C@H]3O[C@@H](n4ccc(=O)[nH]c4=O)[C@H](O)[C@@H]3OP(O)(=S)OC[C@H]3O[C@@H](n4ccc(=O)[nH]c4=O)[C@H](O)[C@@H]3OP(O)(=S)OC[C@H]3O[C@@H](n4cnc5c(=O)[nH]c(N)nc54)[C@H](O)[C@@H]3OP(O)(=S)OC[C@H]3O[C@@H](n4ccc(=O)[nH]c4=O)[C@H](O)[C@@H]3OP(O)(=S)OC[C@H]3O[C@@H](n4cnc5c(=O)[nH]c(N)nc54)[C@H](O)[C@@H]3OP(O)(=S)OCC(O)COP(O)(=S)O[C@H]3[C@@H](O)[C@H](n4cnc5c(=O)[nH]c(N)nc54)O[C@@H]3COP(O)(=S)O[C@H]3[C@@H](O)[C@H](n4ccc(=O)[nH]c4=O)O[C@@H]3COP(O)(=S)O[C@H]3[C@@H](O)[C@H](n4cnc5c(=O)[nH]c(N)nc54)O[C@@H]3COP(O)(=S)O[C@H]3[C@@H](O)[C@H](n4ccc(=O)[nH]c4=O)O[C@@H]3COP(O)(=S)O[C@H]3[C@@H](O)[C@H](n4ccc(=O)[nH]c4=O)O[C@@H]3COP(O)(=S)O[C@H]3[C@@H](O)[C@H](n4ccc(N)nc4=O)O[C@@H]3COP(O)(=S)O[C@H]3[C@@H](O)[C@H](n4cnc5c(=O)[nH]c(N)nc54)O[C@@H]3COP(O)(=S)O[C@H]3[C@@H](O)[C@H](n4ccc(=O)[nH]c4=O)O[C@@H]3COP(O)(=S)O[C@H]3[C@@H](O)[C@H](n4ccc(N)nc4=O)O[C@@H]3COP(O)(=S)O[C@H]3[C@@H](O)[C@H](n4cnc5c(=O)[nH]c(N)nc54)O[C@@H]3COP(O)(=S)O[C@H]3[C@@H](O)[C@H](n4ccc(=O)[nH]c4=O)O[C@@H]3COCCCO)[C@H]2O)c(=O)n1 (stereo partly drawn) | Active | Dose-dependent effect | Active | Active | Active | Dose-dependent effect | Dose-dependent effect | Active | Dose-dependent effect | Active | Dose-dependent effect | Active | Dose-dependent effect | – | – | – |
| 74% | Active | inactive | Nc1ccn([C@@H]2O[C@H](COP(O)(=S)O[C@H]3[C@@H](O)[C@H](n4cnc5c(=O)[nH]c(N)nc54)O[C@@H]3COP(O)(=S)O[C@H]3[C@@H](O)[C@H](n4ccc(=O)[nH]c4=O)O[C@@H]3CO)[C@@H](OP(O)(=S)OC[C@H]3O[C@@H](n4ccc(=O)[nH]c4=O)[C@H](O)[C@@H]3OP(O)(=S)OC[C@H]3O[C@@H](n4cnc5c(=O)[nH]c(N)nc54)[C@H](O)[C@@H]3OP(O)(=S)OC[C@H]3O[C@@H](n4ccc(N)nc4=O)[C@H](O)[C@@H]3OP(O)(=S)OC[C@H]3O[C@@H](n4ccc(=O)[nH]c4=O)[C@H](O)[C@@H]3OP(O)(=S)OC[C@H]3O[C@@H](n4ccc(=O)[nH]c4=O)[C@H](O)[C@@H]3OP(O)(=S)OC[C@H]3O[C@@H](n4cnc5c(=O)[nH]c(N)nc54)[C@H](O)[C@@H]3OP(O)(=S)OC[C@H]3O[C@@H](n4ccc(=O)[nH]c4=O)[C@H](O)[C@@H]3OP(O)(=S)OC[C@H]3O[C@@H](n4cnc5c(=O)[nH]c(N)nc54)[C@H](O)[C@@H]3OP(O)(=S)OCC(O)COP(O)(=S)O[C@H]3[C@@H](O)[C@H](n4cnc5c(=O)[nH]c(N)nc54)O[C@@H]3COP(O)(=S)O[C@H]3[C@@H](O)[C@H](n4ccc(=O)[nH]c4=O)O[C@@H]3COP(O)(=S)O[C@H]3[C@@H](O)[C@H](n4cnc5c(=O)[nH]c(N)nc54)O[C@@H]3COP(O)(=S)O[C@H]3[C@@H](O)[C@H](n4ccc(=O)[nH]c4=O)O[C@@H]3COP(O)(=S)O[C@H]3[C@@H](O)[C@H](n4ccc(=O)[nH]c4=O)O[C@@H]3COP(O)(=S)O[C@H]3[C@@H](O)[C@H](n4ccc(N)nc4=O)O[C@@H]3COP(O)(=S)O[C@H]3[C@@H](O)[C@H](n4cnc5c(=O)[nH]c(N)nc54)O[C@@H]3COP(O)(=S)O[C@H]3[C@@H](O)[C@H](n4ccc(=O)[nH]c4=O)O[C@@H]3COP(O)(=S)O[C@H]3[C@@H](O)[C@H](n4ccc(N)nc4=O)O[C@@H]3COP(O)(=S)O[C@H]3[C@@H](O)[C@H](n4cnc5c(=O)[nH]c(N)nc54)O[C@@H]3COP(O)(=S)O[C@H]3[C@@H](O)[C@H](n4ccc(=O)[nH]c4=O)O[C@@H]3CO)[C@H]2O)c(=O)n1 (stereo partly drawn) | – | Dose-dependent effect | – | – | – | Dose-dependent effect | Dose-dependent effect | – | Dose-dependent effect | – | Dose-dependent effect | – | Dose-dependent effect | inactive | inactive | inactive |
